What all share (assay type): cell-based
Test [1] addresses phosphorylated ERBB2 (pERBB2) (Homo sapiens (Human), UniProt P04626). Description: Detection of phosphorylated ERBB2 (pERBB2) by ELISA in BT-474 cells. Particulars: four hours incubation with compound. On the procedure: BT-474 cells were seeded into a 96-well at 2.0*10^4 cells/100 μl/well. Compounds were dissolved and serially diluted in DMSO. The compounds were then were added, mixed, and incubated for four hours at 37° C., 5% CO2. […] Following the four hour incubation with compounds, cell lysates were prepared. Plates were centrifuged for 5 min at 3000 RPM, and supernatant was removed from each well. Cells were washed 3 times by resuspension in 150 μl PBS, followed by centrifugation and removal of the supernatant, as above. 100 μl of cell lysis buffer (Boston BioProducts, cat #BP-115D) supplied with 1× complete ULTRA cocktail inhibitor (Thermo ScientificTM, cat #78443) was then added to the washed cells. Cells were incubated with lysis buffer for 1 hour at 4° C., and then stored at -80° C. Enzyme-linked immunosorbent assays (ELISA) were performed to measure phosphorylated ERBB2 levels. […] The next day, plates were washed with PBS+0.05% Tween20 (PBST). 150 μl of 5% BSA blocking solution was added for 1 hour at room temperature, with shaking. Plates were washed with PB ST. Cell lysates were thawed and 100 μl of lysate was added to the ELISA plate. The plates were incubated for 2 hours at room temperature, with shaking. ELISA plates were then washed with PBST and 100 μl of an HRP-labeled detection antibody that binds phosphorylated tyrosine (R&D Systems, cat #841913) was added to each well. Plates were incubated for 1 hour at room temperature, with shaking. Plates were then washed with PBST, and 100 μl TMB substrate solution (R&D Systems, cat #DY999) was added. Plate were incubated in the dark for 20 minutes at room temperature. 50 μl of Stop solution (R&D Systems, cat #DY994) (50 μl) was added to each well and mixed. […] The remaining kinase activity by calculated using the following formula: % Relative activity=100×([…]). The low and high control values (“LC” and “HC”) were generated from lysate from wells without cells or with cells treated with 0.1% DMSO, respectively.
(In general: An ELISA detects its analyte on a solid surface through an enzyme-linked reagent.)

In test [2] the target is phosphorylated EGFR (pEGFR) (Homo sapiens (Human), UniProt P00533). As to the kind of experiment: Detection of phosphorylated EGFR (pEGFR) in EGF-stimulated A431 cells (AlphaLISA). Particulars: A431 cells (10% FBS), 4 hours incubation, then EGF 30 ng/mL for 10 minutes. The method, then:
[…] were performed to measure phosphorylated EGFR levels using A431 cells (10% FBS). A431 (1.0*10^4 cells/40 μl/well) cells were seeded in 384 well. Compounds were dissolved in DMSO, serially diluted in DMSO and then were added, mixed, and incubated for 4 hours at 37° C., 5% CO2. Following the 4-hours incubation, cells were stimulated for 10 minutes with EGF (Invitrogen, cat #PHG0311) at a final concentration of 30 ng/mL in the incubator. The media was aspirated and cells were lysed in […] lysis buffer with protease and phosphatase inhibitors (PerkinElmer, cat #ALSU-PEGFR-A50K). The plates were placed on a shaker for 5 minutes and then incubated for 30 min at 4° C. for complete lysis. The lysate was transferred to an Optiplate (Perkin Elmer, cat #6007290).
Acceptor mix (PerkinElmer, cat #ALSU-PEGFR-A50K) was prepared just before use and 5 μL was dispensed to all the wells, followed by a 1.5-2 h incubation at room temperature in dark. The donor mix (PerkinElmer, cat #ALSU-PEGFR-A50K) was prepared under low light conditions prior to use and […] of donor mix was added to all the wells under subdued lighting or green filters. The plates were placed on a shaker for 5 min, sealed, and incubated overnight at room temperature in dark. Plates were read on the Envision (PerkinElmer) using standard AlphaLISA settings.
The percentage of inhibition on EGFR phosphorylation was calculated following equation: % Inhibition=100×(LumHC−LumSample)/(LumHC−LumLC). The low and high controls (LC/HC) are generated from lysate from wells with cells treated with DMSO or […] Staurosporine (BioAustralis, cat #BIA-S1086), […]. IC50 values were calculated by fitting the Curve using XLfit (v5.3.1.3), equation 201: Y=Bottom+(Top−Bottom)/(1+10^((Log IC50−X)*HillSlope)).
A general note: In Alpha technology, singlet oxygen from a donor bead excites a nearby acceptor bead.

Test [3] has as its system Ba/F3 ERBB2 YVMA. As to the kind of experiment: Cell viability assay (CellTiter Glo), Ba/F3 cells engineered to express ERBB2 YVMA. Particulars: Mus musculus, BaF3, 72 h. The method, then: Cells were treated with compounds, and cell viability was measured as a metric of kinase inhibition.
BT-474, A431, MDA-MB-175VII, NCI-H1781, MCF7, and Ba/F3 cell lines were tested. The Ba/F3 cell line is IL-3-dependent mouse cell line derived from the C3H mouse strain. Ba/F3 cell lines were engineered to express human ERBB2 or EGFR kinases, rendering the cells IL-3 independent. The lines were generated via retroviral transduction utilizing a Moloney murine leukemia virus (MMLV) promoter, and constructs are stably integrated into the cell genome. The sequences of the ERBB2 and EGFR genes used were NCBI Reference Sequences NM 004448.3 and NM 005228.3, respectively.
BT-474, A431, MDA-MB-175VII, NCI-H1781 and MCF7 cells were grown in the appropriate growth medium as described in Table B2 below, and harvested at 50-80% confluence. BT-474, A431, MDA-MB-175VII, NCI-H1781 and MCF7 cells were counted and seeded at 2,000 or 1,500 cells per well in 384-well tissue culture plates (see Table B2). Similarly, Ba/F3 cell lines engineered to express EGFR, ERBB2, or ERBB2 mutants were grown, harvested, counted and seeded at 3000 cells per well in 96-well plates. A subset of wells contained media only (low control, “LC”).
Table B1 provides the growth media and number of cells seeded per well for the each cell line.
Compounds were dissolved in DMSO and serially diluted. Serially-diluted compound or a DMSO only control (high control, “HC”) was added to the plated cells in each well. Compounds were tested at concentrations of about 10 μM to 0.51 nM, using three-fold dilutions. The final proportion of DMSO never exceeded 0.1%.
Plates were placed in a 37° C., 5% CO2 incubator for 72 hours. Plates were then removed from the incubator and equilibrated for 15 minutes at room temperature. […] of CellTiter Glo reagent (Promega) was added to measure the relative level of metabolically active cells by quantifying intracellular ATP concentrations. Plates were incubated for 30 minutes at room temperature, and luminescence was measured. Percent viability was normalized to a vehicle control only using the following formula: % viability=100×(Lumsample−LumLC)/(LumHC−LumLC). Graphical curves were fitted using a nonlinear regression model with a sigmoidal dose response.

[4] abbreviates: read-out: Ba/F3 ERBB2 YVMA, IC50, nM.
Setting [5] is: Ba/F3 cells expressing human ERBB2 YVMA mutant, 72 hours, cell viability, CellTiter Glo, read-out: Ba/F3 ERBB2 YVMA, IC50.

Read-outs that look alike come from different tables or passages of the source.

phosphorylated ERBB2 (pERBB2), sequence (P04626 23-1255): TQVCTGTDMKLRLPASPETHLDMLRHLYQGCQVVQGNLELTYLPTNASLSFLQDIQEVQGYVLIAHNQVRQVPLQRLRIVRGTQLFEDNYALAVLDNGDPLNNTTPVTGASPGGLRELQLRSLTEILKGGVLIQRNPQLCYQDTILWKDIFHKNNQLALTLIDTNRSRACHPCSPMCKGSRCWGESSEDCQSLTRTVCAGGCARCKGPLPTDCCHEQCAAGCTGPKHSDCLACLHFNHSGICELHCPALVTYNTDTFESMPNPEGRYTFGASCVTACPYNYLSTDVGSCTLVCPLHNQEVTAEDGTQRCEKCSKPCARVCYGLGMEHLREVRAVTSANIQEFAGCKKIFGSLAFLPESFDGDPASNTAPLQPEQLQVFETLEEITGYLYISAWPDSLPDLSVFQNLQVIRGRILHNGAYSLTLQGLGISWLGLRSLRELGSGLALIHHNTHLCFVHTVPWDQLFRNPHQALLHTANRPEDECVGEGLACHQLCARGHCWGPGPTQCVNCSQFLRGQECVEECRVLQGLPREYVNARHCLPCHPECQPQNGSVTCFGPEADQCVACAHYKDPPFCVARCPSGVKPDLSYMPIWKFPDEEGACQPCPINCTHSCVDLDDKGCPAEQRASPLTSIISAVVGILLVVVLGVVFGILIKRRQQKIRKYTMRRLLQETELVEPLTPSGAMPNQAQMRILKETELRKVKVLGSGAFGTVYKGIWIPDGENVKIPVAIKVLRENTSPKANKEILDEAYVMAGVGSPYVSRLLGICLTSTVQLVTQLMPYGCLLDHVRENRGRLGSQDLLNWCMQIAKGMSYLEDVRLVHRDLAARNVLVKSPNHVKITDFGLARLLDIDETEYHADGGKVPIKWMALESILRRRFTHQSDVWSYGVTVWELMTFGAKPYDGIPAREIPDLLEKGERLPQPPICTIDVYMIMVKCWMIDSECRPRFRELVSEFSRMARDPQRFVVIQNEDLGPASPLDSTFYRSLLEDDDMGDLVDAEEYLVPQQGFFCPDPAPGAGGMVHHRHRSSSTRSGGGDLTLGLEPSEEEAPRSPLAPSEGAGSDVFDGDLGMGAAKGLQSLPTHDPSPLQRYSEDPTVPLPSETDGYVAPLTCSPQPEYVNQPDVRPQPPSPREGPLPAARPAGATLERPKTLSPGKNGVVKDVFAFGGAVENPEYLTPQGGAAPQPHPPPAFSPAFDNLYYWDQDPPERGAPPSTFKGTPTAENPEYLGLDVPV
phosphorylated EGFR (pEGFR), sequence (P00533 25-1210): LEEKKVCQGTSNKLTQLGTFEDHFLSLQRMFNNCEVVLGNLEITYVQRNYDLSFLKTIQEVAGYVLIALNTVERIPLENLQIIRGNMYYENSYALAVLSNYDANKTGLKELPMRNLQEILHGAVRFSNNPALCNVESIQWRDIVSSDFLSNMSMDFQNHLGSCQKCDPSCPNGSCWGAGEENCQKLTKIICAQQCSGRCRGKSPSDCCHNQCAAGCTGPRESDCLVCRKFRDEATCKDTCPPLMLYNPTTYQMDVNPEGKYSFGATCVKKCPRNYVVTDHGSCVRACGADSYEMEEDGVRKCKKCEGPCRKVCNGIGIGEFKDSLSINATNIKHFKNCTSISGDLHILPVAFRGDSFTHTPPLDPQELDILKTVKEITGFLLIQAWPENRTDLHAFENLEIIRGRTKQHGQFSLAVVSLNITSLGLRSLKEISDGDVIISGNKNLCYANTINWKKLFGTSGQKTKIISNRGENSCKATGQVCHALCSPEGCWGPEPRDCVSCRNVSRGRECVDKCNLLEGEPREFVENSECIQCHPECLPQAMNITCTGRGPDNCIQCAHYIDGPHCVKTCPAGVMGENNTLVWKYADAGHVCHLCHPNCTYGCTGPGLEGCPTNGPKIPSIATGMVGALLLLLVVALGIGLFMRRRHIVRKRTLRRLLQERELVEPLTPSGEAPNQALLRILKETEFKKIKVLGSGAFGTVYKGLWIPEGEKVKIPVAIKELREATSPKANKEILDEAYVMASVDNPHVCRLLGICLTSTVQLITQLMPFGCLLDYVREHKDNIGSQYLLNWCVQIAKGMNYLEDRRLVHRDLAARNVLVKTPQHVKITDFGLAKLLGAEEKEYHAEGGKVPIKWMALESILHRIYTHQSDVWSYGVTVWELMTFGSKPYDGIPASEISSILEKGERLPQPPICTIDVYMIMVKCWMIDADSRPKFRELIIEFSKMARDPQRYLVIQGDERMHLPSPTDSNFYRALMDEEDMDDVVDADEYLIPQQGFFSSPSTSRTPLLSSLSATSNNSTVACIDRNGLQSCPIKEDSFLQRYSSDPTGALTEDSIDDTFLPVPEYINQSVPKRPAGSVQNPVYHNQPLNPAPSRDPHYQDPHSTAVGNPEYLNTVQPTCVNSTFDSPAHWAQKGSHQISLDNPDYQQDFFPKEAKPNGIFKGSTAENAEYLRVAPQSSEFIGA

On to `[2H]C([2H])([2H])N(C/C=C/C(=O)N1CCN2C[C@H]1COc1cc3ncnc(Nc4ccc(Oc5ccn6ncnc6c5)c(C)c4)c3nc12)C([2H])([2H])[2H]` [Compound 36, (E)-1-((10S)-4-((4-([1,2,4]triazolo[1,5-a]pyridin-7-yloxy)-3-methylphenyl)amino)-7,8,10,11-tetrahydro-9H-6,10-methanopyrimido[4′,5′:5,6]pyrido[3,2-b][1,4,7]oxadiazonin-9-yl)-4-(bis(methyl-d3)amino)but-2-en-1-one formic acid], for which the IC50 in test [1] came out at 0.00992 µM; in test [2] it was 1.62 µM; in test [3] (setting [4]), 6.19 nM.
Regarding `[2H]C([2H])([2H])N(C/C=C/C(=O)N1CCN2C[C@H]1COc1cc3ncnc(Nc4cc(C)c(Oc5ccn6ncnc6c5)cc4F)c3nc12)C([2H])([2H])[2H]` [Compound 46, (E)-1-((10S)-4-((4-([1,2,4]triazolo[1,5-a]pyridin-7-yloxy)-2-fluoro-5-methylphenyl)amino)-7,8,10,11-tetrahydro-9H-6,10-methanopyrimido[4′,5′:5,6]pyrido[3,2-b][1,4,7]oxadiazonin-9-yl)-4-(bis(methyl-d3)amino)but-2-en-1-one], the results for the IC50 in test [1], in test [2] and in test [3] (setting [4]) were 0.00684 µM, 2.47 µM and 7.04 nM, respectively.
Regarding `Cc1cc(Nc2ncnc3cc4c(nc23)N2CCCN(C(=O)/C=C/CN(C)C)C(CO4)C2)ccc1Oc1ccn2ncnc2c1` (single isomer, unassigned) [Example S55, Enantiomer 1, (E)-1-(4-((4-([1,2,4]triazolo[1,5-a]pyridin-7-yloxy)-3-methylphenyl)amino)-8,9,11,12-tetrahydro-6,11-methanopyrimido[4′,5′:5,6]pyrido[3,2-b][1,4,8]oxadiazecin-10(7H)-yl)-4-(dimethylamino)but-2-en-1-one], the IC50 in test [1] amounted to 0.0174 µM.
With `C=CC(=O)N1CCN2C[C@@H]1COc1cc3ncnc(Nc4ccc(Cc5ccn6ncnc6c5)c(C)c4)c3nc12` [Compound 19], the figures for the IC50 in test [2] and in test [3] (setting [4]) were greater than 10 µM and greater than 500 nM, respectively.
Consider `[2H]C([2H])(/C=C/C(=O)N1CCN2C[C@H]1COc1cc3ncnc(Nc4cc(C)c(Oc5ccn6ncnc6c5)cc4F)c3nc12)N(C)C` [Compound 58, (E)-1-((10S)-4-((4-([1,2,4]triazolo[1,5-a]pyridin-7-yloxy)-2-fluoro-5-methylphenyl)amino)-7,8,10,11-tetrahydro-9H-6,10-methanopyrimido[4′,5′:5,6]pyrido[3,2-b][1,4,7]oxadiazonin-9-yl)-4-(dimethylamino)but-2-en-1-one-4,4-d2], for which the figures for the IC50 in test [1], in test [2] and in test [3] (setting [5]) were 0.0055 µM, 0.869 µM and 7.79 nM, respectively.
As to `Cc1cc(Nc2ncnc3cc4c(nc23)N2CCCN(C(=O)/C=C/CN(C)C)C(CO4)C2)ccc1Oc1ccn2ncnc2c1` (racemic) [Compound 54, (E)-1-(4-((4-([1,2,4]triazolo[1,5-a]pyridin-7-yloxy)-3-methylphenyl)amino)-8,9,11,12-tetrahydro-6,11-methanopyrimido[4′,5′:5,6]pyrido[3,2-b][1,4,8]oxadiazecin-10(7H)-yl)-4-(dimethylamino)but-2-en-1-one], the results for the IC50 in test [1], in test [2] and in test [3] (setting [5]) were 0.0292 µM, greater than 10 µM and 8.66 nM, respectively.
The corresponding values for `[2H]C([2H])([2H])N(C([2H])([2H])[2H])C([2H])([2H])/C=C/C(=O)N1CCN2C[C@H]1COc1cc3ncnc(Nc4cc(C)c(Oc5ccn6ncnc6c5)cc4F)c3nc12` [Compound 59, (E)-1-((10S)-4-((4-([1,2,4]triazolo[1,5-a]pyridin-7-yloxy)-2-fluoro-5-methylphenyl)amino)-7,8,10,11-tetrahydro-9H-6,10-methanopyrimido[4′,5′:5,6]pyrido[3,2-b][1,4,7]oxadiazonin-9-yl)-4-(bis(methyl-d3)amino)but-2-en-1-one-4,4-d2] are 0.009 µM, 1.38 µM and 6.5 nM.
For `C=CC(=O)N1CCN2C[C@H]1COc1cc3ncnc(Nc4ccc(Cc5ccn6ncnc6c5)c(C)c4)c3nc12` [Compound 13, 1-((10S)-4-((4-([1,2,4]triazolo[1,5-a]pyridin-7-ylmethyl)-3-methylphenyl)amino)-7,8,10,11-tetrahydro-9H-6,10-methanopyrimido[4′,5′:5,6]pyrido[3,2-b][1,4,7]oxadiazonin-9-yl)prop-2-en-1-one], the IC50 in test [1] was 0.0158 µM; in test [2] it was 1.58 µM; in test [3] (setting [4]), 8.92 nM.
Turning to `Cc1cc(Nc2ncnc3cc4c(nc23)N2CCCN(C(=O)/C=C/CN(C)C)C(CO4)C2)ccc1Oc1ccn2ncnc2c1` (single isomer, unassigned) [Example S55, Enantiomer 2, (E)-1-(4-((4-([1,2,4]triazolo[1,5-a]pyridin-7-yloxy)-3-methylphenyl)amino)-8,9,11,12-tetrahydro-6,11-methanopyrimido[4′,5′:5,6]pyrido[3,2-b][1,4,8]oxadiazecin-10(7H)-yl)-4-(dimethylamino)but-2-en-1-one], the IC50 in test [1] was found to be 0.304 µM.
In the case of `Cc1cc(Nc2ncnc3cc4c(cc23)N2CCN(C(=O)/C=C/CN(C)C)[C@@H](CO4)C2)ccc1Oc1ccn2ncnc2c1` [Compound 8, (E)-1-((10R)-4-((4-([1,2,4]triazolo[1,5-a]pyridin-7-yloxy)-3-methylphenyl)amino)-7,8,10,11-tetrahydro-9H-6,10-methano[1,4,7]oxadiazonino[3,2-g]quinazolin-9-yl)-4-(dimethylamino)but-2-en-1-one], the IC50 in test [3] (setting [5]) is greater than 500 nM.

The values above are taken from patent publication US11807649B2, “Fused tetracyclic quinazoline derivatives as inhibitors of ErbB2” (EnLiven Therapeutics, Inc., priority 2021, dated 2023).
